Measurements reported in patent US20110008415A1, “NOVEL LIPOPHILIC COMPOSITIONS AND USES THEREOF” (UNIVERSITE DE BRETAGNE OCCIDENTALE, priority 2007, published 2011).

Key:
[1] = basic side chain / imidazole ring; cited from earlier work
[2] = pKa of basic side chain / imidazole ring; format: physicochemical
[3] = system: 293T7 cells (human kidney embryonal fibroblasts); test: Transfection of 293T7 cells with luciferase plasmid/liposome complexes; format: cell-based; settings: for transfection efficiency when associated with co-lipids 2c or 7b compared with DOPE: 293T line cells, tests considered as a whole; for observed luminescence values: 293T cells; for efficiency gain as compared to DOPE: value in brackets
Experimental: A lipid film was prepared in a sterile flask under nitrogen by dry evaporating 1 mL of a 10.8 mM cationic lipid or a mixture of a cationic lipid/neutral lipid (molar ratio 1:1) in ethanol. The film was then hydrated with 1 mL of 10 mM HEPES buffer, pH 7.4, the solution was vigorously stirred for 3 min, then allowed to rest at 4° C. After 2 h, the solution was sonicated for 15 min in an ultrasonic bath at 37 kHz (Bioblock ultrasonic bath, Bioblock Scientific, Illkirch, France).
18 μl of a solution of liposomes at 5.4 mM were diluted in 200 μl of 10 mM HEPES buffer, pH 7.4. After 15 min, 7.5 μg of a plasmid encoding the gene of the luciferase (pTG11033; 9514 bp, Transgene S. A., Strasbourg, France) in 20 μl of 10 mM HEPES buffer, pH 7.4, were added to the liposomes and the mixture was allowed to rest for 30 min. The solution comprising the DNA/liposome complexes was adjusted to 1.5 ml with some culture medium free of serum and at 0.15M NaCl with a solution of 5M NaCl.
Two days before transfection, 293T7 cells (human kidney embryonal fibroblasts) were seeded with 1×10^5 cells in 1 mL of a culture medium in a 24-well plate. The day of the transfection, cells achieved 80% confluence. Cells were washed twice with some medium free of serum prior to adding 2.5 μg of DNA in the form of DNA/liposome complexes. After 4 h of incubation at 37° C., the medium was removed and cells were cultured for 48 h with complete culture medium.
The culture medium of the cells was removed and each well was rinsed with 500 μL of PBS. Cell detachment was obtained with 500 μL of the PBS+trypsin per well for 5 min at 37° C. The cell suspension was then centrifuged for 5 min at 250×g (1500 rpm) at 20° C. 400 μL of lysis buffers (CCLR, Promega) were added on the cell pellet, which was allowed to incubate onto ice for 15 min. After Vortex-stirring, centrifugation was effected at 12 000×g for 2 min at 4° C. The luciferase activity contained in 20 μL of supernatant was measured using a luminometer (Bertold Lumat LB 9501) for 10 seconds after injection of 100 μL of luciferin (Luciferase Assay Reagent, Promega). The light transmitted was converted to arbitrary units relative to the protein amount in the sample determined through the bicinchoninic acid method.
The protein amount in the lysate was evaluated through the BCA method (H. Hill and G. Straka, 1998). Proteins were contacted with bicinchoninic acid (BCA) and copper ions in an alkaline medium. The copper ions resulting from the protein-mediated reduction thereof formed stable, colored complexes with BCA. Coloration is objectified through spectrophotometric determination (562 nm). Once a standard range was obtained using bovine serum albumin, the weight of protein contained in the cell lysates was calculated.

[4] = co-lipid 2c (molar ratio 1:1), 48 h after transfection
[5] = co-lipid 7b (molar ratio 1:1), 48 h after transfection
[6] = co-lipid DOPE (molar ratio 1:1), 48 h after transfection
[7] = no co-lipid (—), luciferase plasmid pTG11033, 48 h after transfection

imidazole ring protonated at a physiological pH [2]	Compound	pKa [1]	transfection efficiency when associated with co-lipids 2c or 7b compared with DOPE [3]	observed luminescence values [3, 4]	efficiency gain as compared to DOPE ([3]; co-lipid 2c)	observed luminescence values [3, 5]	efficiency gain as compared to DOPE ([3]; co-lipid 7b)	observed luminescence values [3, 6]	observed luminescence values [3, 7]
	N=C(N)NCCCC[C@H](N)C(=O)O [Homoarginine]	12.5							
	COC(=O)[C@@H](N)CCCNC(=N)N [arginine methyl ester]	12.48							
about 5%	N[C@@H](Cc1c[nH]cn1)C(=O)O [histidine]								
	c1c[nH]cn1 [imidazole]	about 6							
	COC(=O)[C@@H](N)CCCCN [lysine methyl ester]	10.57							
	arginine methyl ester dioleoyl-N-phosphoramidate [3a]		more efficient	5.10^8 TRLU	100	10^6 TRLU	0.2	5.10^6 TRLU	7.10^6 TRLU
	homoarginine methyl ester dioleoyl-N-phosphoramidate [3b]		more efficient	3.10^9 TRLU	1000	3.10^7 TRLU	10	3.10^6 TRLU	9.10^6 TRLU
	lysine methyl ester dioleoyl-N-phosphoramidate [compound 4]		more efficient	5.10^7 TRLU	1.6	4.10^7 TRLU	1.3	3.10^7 TRLU	2.10^7 TRLU
